# Source: US10370355B2, “Tetrahydroisoquinoline derivatives” (UCB Biopharma SPRL, priority 2016, dated 2019)
# Target: T1, dopamine D1 receptor (Homo sapiens, UniProt P21728)
# T1 construct: host or cells: LMtk (Ltk-) mouse fibroblast cells
# Assay: cAMP HTRF potentiation assay (presence of EC20 dopamine)
# Assay type: cell-based
# Conditions: potentiation of cAMP in presence of EC20 dopamine (1.1 nM); LMtk (Ltk-) mouse fibroblast cells expressing the dopamine D1 receptor
# Source text: The present assay allows to measure respectively the effects of compounds of the Examples in the absence of dopamine (“activation assay”) and the effects of compounds of the Examples in the presence of dopamine (“potentiation assay”).
# The potentiation assay measures the ability of compounds to increase the levels of cAMP produced by a low-threshold concentration of dopamine. The concentration of dopamine used ([EC20]) is designed to produce 20% stimulation compared to the maximal response (100%) seen with increasing the concentration of dopamine. To measure this potentiation we incubate increasing concentrations of the compound with the [EC2O] of dopamine and measure the potentiation as increases in cAMP production. The pEC50 of a compound is the −log 10 of the concentration of the compound which produces 50% of the potentiation of the cAMP levels and the Erel is the relative efficacy, defined as the maximal % potentiation produced by the compound compared to the maximal response produced by increasing concentrations of dopamine (Erel of 1=dopamine maximum response).
# Cells were cultured at 37° C. in a humidified atmosphere of 5% CO2. Cells were grown in DMEM-F12+GlutaMAX™-I medium (GIBCO®, Invitrogen, Merelbeke, Belgium) containing 10% fetal bovine serum (BioWhittaker®, Lonza, Verviers, Belgium), 400 μg/mL Geneticin (GIBCO®), 100 IU/mL Penicillin and 100 IU/mL Streptomycin (Pen-Strep solution, BioWhittaker®).
# The measurement of changes in intracellular cyclic adenosinemonophopshpate (cAMP) was determined using the HTRF cAMP dynamic assay kit from CisBio (Codolet, France). Using homogenous time-resolved fluoresence technology, the assay is based on competition between native cAMP produced by cells and cAMP labelled with the dye d2. The tracer binding is determined by an anti-cAMP antibody labeled with cryptate. The effects of the compound alone (agonism) was determined by performing the assay in the absence of dopamine, whilst the effect of the compound as a positive allosteric modulator (PAM) was determined in the presence of an EC20 concentration of dopamine. Cells (20,000 per well) are incubated in 384 plates for 1 hour at room temperature in a final volume of 20 μLHBSS (Lonza, with calcium, magnesium and HEPES buffer 20 mM, pH 7.4) containing: isobutyl methylxanthine (Sigma, 0.1 mM final), varying concentrations of test compound (typically […] to 10^−4.5M) in the presence and absence of dopamine (1.1 nM final). The reaction is then terminated and the cells lysed by adding the d2 detection reagent in lysis buffer (10 microL) and the cryptate reagent in lysis buffer (10 microl) according to manufacturer's instructions. This is then incubated for a further 60 min at room temperature and changes in HTRF fluorescent emission ratio determined according to manufacturer's instructions using an Envision plate reader (Perkin Elmer, Zaventem, Belgium) with laser excitation. All incubations were performed in duplicate and results were compared to a concentration-effect curve to dopamine. (10^−11M to 10^−6M).
# Data was analyzed using Excel and PRISM (GraphPad Software) to obtain pEC50 and Erel using the 4-parameter logistic equation (DeLean et al, 1978) where Erel is the fitted maximal response of the test compound minus basal expressed as a percentage relative to that obtained with dopamine which was defined as 100%.
# T1 sequence (P21728 whole entry): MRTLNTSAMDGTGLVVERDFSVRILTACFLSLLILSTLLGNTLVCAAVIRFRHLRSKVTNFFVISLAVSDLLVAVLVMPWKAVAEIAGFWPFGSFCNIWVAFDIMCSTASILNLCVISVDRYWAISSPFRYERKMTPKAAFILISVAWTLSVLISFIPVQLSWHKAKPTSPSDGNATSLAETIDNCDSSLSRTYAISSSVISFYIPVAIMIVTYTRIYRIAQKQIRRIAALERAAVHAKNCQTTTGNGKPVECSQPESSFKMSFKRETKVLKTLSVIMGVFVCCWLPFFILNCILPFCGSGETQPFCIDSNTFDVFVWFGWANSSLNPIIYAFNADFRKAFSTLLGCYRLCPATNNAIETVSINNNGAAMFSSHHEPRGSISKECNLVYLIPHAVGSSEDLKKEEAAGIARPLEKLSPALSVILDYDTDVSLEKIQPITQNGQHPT
compound,measurement,value
"C[C@H]1c2cccc([C@H](O)C(F)F)c2CCN1C(=O)Cc1c(Cl)ccn2ncc(Cl)c12 [Example 30, 2-(3,5-dichloropyrazolo[1,5-a]pyridin-4-yl)-1-[(1S)-5-[(1S)-2,2-difluoro-1-hydroxy-ethyl]-1-methyl-3,4-dihydro-1H-isoquinolin-2-yl]ethanone]",EC50,≤ 31.6 nM
